Laboratory results as given in patent US9169217B2, “Arylalkyl esters of 4-amino-6-(substituted phenyl)-picolinates and 6-amino-2-(substituted phenyl)-pyrimidinecarboxylates and their use as selective herbicides for crops” (Dow AgroSciences LLC, priority 2011, dated 2015).

Assays:
Assay type in all cases: in vivo
[1] = system: Leptochloa chinensis (L.) NEES (Chinese sprangletop); assay: In-water applied herbicidal activity in transplanted paddy rice (Example 17); conditions: LEFCH, probit analysis; for GR50: 50% growth reduction; for GR80: 80% growth reduction; for GR90: 90% growth reduction
In short: (§1)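 Ester forms of test compounds, in acetone diluted with aqueous Agri-dex (final 1.25% v/v crop oil concentrate), were injected into the flood water of paddy pots holding weeds or rice at the 2nd–3rd leaf stage in mud (pH ~7.3–7.8). Visual injury versus untreated plants was scored 0–100% after 3 weeks in greenhouse (~29/26 °C). GR50/GR80 were derived by probit analysis.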

[2] = system: Ipomoea hederacea (Morningglory, ivyleaf); assay: General postemergence herbicidal activity (Example 13); conditions: post-emergent spray, 14 DAA
Procedure: Seeds or nutlets of the desired test plant species were planted in Sun Gro Metro-Mix® 360 planting mixture, which typically has a pH of 6.0 to 6.8 and an organic matter content of about 30 percent, in plastic pots with a surface area of 84.6 square centimeters (cm^2). When required to ensure good germination and healthy plants, a fungicide treatment and/or other chemical or physical treatment was applied. The plants were grown for 7-31 days (d) in a greenhouse with an approximate 15 hour (h) photoperiod which was maintained at about 23-29° C. during the day and 22-28° C. during the night. Nutrients and water were added on a regular basis and supplemental lighting was provided with overhead metal halide 1000-Watt lamps as necessary. The plants were employed for testing when they reached the first or second true leaf stage.
Treatments consisted of esters of compounds 33 and 39 and F and G. Compound F is methyl 6-amino-2-(4-chloro-2-fluoro-3-methoxyphenyl)-5-methoxypyrimidine-4-carboxylate; and compound G is methyl 4-amino-3-chloro-6-(4-chloro-2-fluoro-3-methoxyphenyl)picolinate. A weighed amount, determined by the highest rate to be tested, of each test compound was placed in a 25 mL glass vial and was dissolved in 4 mL of a 97:3 v/v (volume/volume) mixture of acetone and dimethyl sulfoxide (DMSO) to obtain concentrated stock solutions. […] The concentrated stock solutions obtained were diluted with 20 mL of an aqueous mixture containing acetone, water, isopropyl alcohol, DMSO, Atplus 411F crop oil concentrate, and Triton® X-155 surfactant in a 48.5:39:10:1.5:1.0:0.02 v/v ratio to obtain spray solutions containing the highest application rates. Additional application rates were obtained by serial dilution of 12 mL of the high rate solution into a solution containing 2 mL of a 97:3 v/v (volume/volume) mixture of acetone and DMSO and 10 mL of an aqueous mixture containing acetone, water, isopropyl alcohol, DMSO, Atplus 411F crop oil concentrate, and Triton® X-155 surfactant in a 48.5:39:10:1.5:1.0:0.02 v/v ratio to obtain ½×, ¼×, ⅛× and 1/16× rates of the high rate. Compound requirements are based upon a 12 mL application volume at a rate of 187 liters per hectare (L/ha). Formulated compounds were applied to the plant material with an overhead Mandel track sprayer equipped with 8002E nozzles calibrated to deliver 187 L/ha over an application area of 0.503 square meters (m^2) at a spray height of 18 inches (43 cm) above the average plant canopy height. Control plants were sprayed in the same manner with the solvent blank.
The treated plants and control plants were placed in a greenhouse as described above and watered by sub-irrigation to prevent wash-off of the test compounds. After 14 d, the condition of the test plants as compared with that of the untreated plants was determined visually and scored on a scale of 0 to 100 percent where 0 corresponds to no injury and 100 corresponds to complete kill.

[3] = system: Cyperus rotundus L. (purple nutsedge); assay: In-water applied herbicidal activity in transplanted paddy rice (Example 17); conditions: rice cropping systems, 35 g ae/ha, 21 DAA, may represent multiple trials
In short: as §1

[4] = 35 g ai/ha, 0 = no injury, 100 = complete kill

Row | Structure (SMILES) | GR50 [1] | GR80 [1] | GR90 [1] | Visual Injury (%) IPOHE ([2]; 8.75 g ai/ha) | Visual Injury (%) IPOHE ([2]; 17.5 g ai/ha) | Visual Injury (%) IPOHE [2, 4] | Visual Injury (%) CYPRO [3] | Visual Injury (%) IPOHE ([2]; 70 g ai/ha)
1 | COc1c(Cl)ccc(-c2nc(C(=O)OCc3ccccc3)c(Cl)c(N)c2F)c1F [Compound 1, benzyl 4-amino-3-chloro-6-(4-chloro-2-fluoro-3-methoxyphenyl)-5-fluoropicolinate] | 50.4 g ae/ha | 78.6 g ae/ha | 99.1 g ae/ha |  |  |  |  | 
2 | COc1c(Cl)ccc(-c2cc(N)c(Cl)c(C(=O)OCc3ccccc3)n2)c1F [Compound 39] |  |  |  | 70% | 75% | 80% | 80% | 
3 | COC(=O)c1nc(-c2ccc(Cl)c(OC)c2F)nc(N)c1OC [Compound F, methyl 6-amino-2-(4-chloro-2-fluoro-3-methoxyphenyl)-5-methoxypyrimidine-4-carboxylate, reference compound] |  |  |  |  |  |  |  | 80%
4 | COC(=O)c1nc(-c2ccc(Cl)c(OC)c2F)cc(N)c1Cl [Compound G, methyl 4-amino-3-chloro-6-(4-chloro-2-fluoro-3-methoxyphenyl)picolinate, reference compound] |  |  |  | 40% | 50% | 65% | 47% | 
5 | COC(=O)c1nc(-c2ccc(Cl)c(OC)c2F)c(F)c(N)c1Cl [E, methyl 4-amino-3-chloro-6-(4-chloro-2-fluoro-3-methoxyphenyl)-5-fluoropicolinate, reference compound] | 59.9 g ae/ha | 99.4 g ae/ha | 130.0 g ae/ha |  |  |  |  | 
